# Experimental data reported in PMC8151276, “An Integrated Approach toward NanoBRET Tracers for Analysis of GPCR Ligand Engagement” (Molecules, 2021).
# Where “and” joins values, the source holds several entries; their conditions need not be identical. Equal values may be shown once. Read-outs that look alike come from different tables or passages of the source.
# Legend:
# Format in all cases: binding
# HTR2A = target: T1, HTR2A (Homo sapiens, UniProt P28223); assay: NanoBRET screen HiBiT-HTR2A in HEK293
# T1 construct: purchased Promega (in-house HiBiT-GPCR construct library, NanoBRET)
# CCR7 = target: T2, CCR7 (Homo sapiens, UniProt P32248); assay: NanoBRET screen HiBiT-CCR7 in HEK293
# T2 construct: purchased Promega (in-house HiBiT-GPCR construct library, NanoBRET)
# T2 sequence (P32248 25-378): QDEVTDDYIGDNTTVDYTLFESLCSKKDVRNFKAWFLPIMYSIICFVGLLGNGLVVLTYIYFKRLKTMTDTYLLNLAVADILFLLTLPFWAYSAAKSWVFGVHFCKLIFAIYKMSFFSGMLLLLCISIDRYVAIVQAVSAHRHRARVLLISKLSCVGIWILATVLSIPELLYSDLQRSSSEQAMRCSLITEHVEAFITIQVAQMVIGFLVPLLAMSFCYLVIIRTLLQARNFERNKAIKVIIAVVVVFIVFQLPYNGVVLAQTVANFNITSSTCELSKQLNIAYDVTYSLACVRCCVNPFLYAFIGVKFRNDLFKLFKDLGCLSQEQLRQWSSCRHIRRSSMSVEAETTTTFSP
# Description: (§1) Each tracer candidate was screened across the entire library of HiBiT-GPCR constructs using NanoBRET as the detection modality. As depicted in Figure 4A, the specificity of interactions was evaluated through decrease in BRET due to competitive displacement of a bound tracer by excess parental compound. Each tracer was analyzed for binding to each HiBiT-GPCR fusion in the absence and in the presence of competing parental compound. Briefly, HEK293 cells were transfected with HiBiT-GPCR constructs diluted into promoterless DNA to reduce expression and maximize translocation to the cell surface. Each tracer candidate was then screened at concentrations of 1 μM and 0.1 μM across cells expressing these fusions. Cells were treated for 1.5 h with tracer either alone or in the presence of 20 μM competing parental compound (i.e., control). BRET was measured upon addition of purified LgBiT and subsequent complementation with HiBiT genetically fused to a GPCR. The specificity of interactions was assessed through a decrease in BRET signal due to competitive displacement of the bound tracer. To further gauge the robustness of these interactions, the fold response over the control (i.e., BRETtracer/BRETcontrol) was calculated. We chose a 1.5-fold response, which translates to ≥7-fold signal over noise as the minimal threshold required to score an interaction as positive. […]. Below we highlight the screening results obtained for our exemplary fluorescent tracers based on Clozapine, Amitriptyline and AZD1283.
# (§2) HiBiT-GPCR DNA constructs were diluted in 10 mM Tris pH 8 to a final concentration of 0.01 μg/μL, arrayed in 96-well plates and stored at −20 °C. For transfection, HEK293 cells were suspended in Opti-MEM (without phenol red) supplemented with 2% fetal bovine serum (Seradigm) and 100 units/mL penicillin–streptomycin (Gibco) at a final concentration of 220,000 cells/mL and dispensed into white 96-well plates at 90 μL/well. Subsequent transfections and screens were carried using an Agilent Bravo Automated Liquid Handling Platform. First, the 96-well HiBiT DNA arrays were diluted 25-fold in Opti-MEM (without serum or phenol red) to a final concentration of 0.0004 μg/μL and 20 μL of the diluted DNAs were transferred into new 96-well plates. Next, promoterless carrier DNA (1 μg/μL) was diluted 25-fold (0.04 μg/μL) and then dispensed into the diluted arrays at 20 μL/well. Following brief mixing, Viafect transfection reagent (Promega) diluted 16-fold into Opti-MEM was dispensed into the plates at 40 μL/well. After mixing by pipetting, plates were incubated for 10 min on the pipetting station deck. The DNA-transfection reagent complexes were then added to plates containing cells. To facilitate the screen, 10 μL of DNA-transfection reagent complexes were added in duplicates to the top 4 and bottom 4 rows, resulting in two identical 48-well arrays per plate. Plates with transfected cells were incubated for 18–20 h at 37 °C/5% CO2. A screen of each tracer across the entire library using two different concentrations requires duplicate plates of transfected cells. Depending on the number of tracers being screened, transfections can be scaled up using the same ratios. The next day, for each tracer, four 20× screening solutions in tracer dilution buffer (Promega) were prepared: two duplicates at final concentration of 20 μM and two duplicates at a final concentration of 2 μM. A competing unmodified compound was added to one of each duplicate at a final concentration of 400 μM. The four resulting solutions were diluted 4-fold in Opti-MEM without serum or phenol red to generate 5× solutions (5 µM and 0.5 µM tracer +/− 100 μM competing compound). To screen the library, a BioTek MultiFlo FX liquid dispenser was used to dispense 22.5 µL of tracer solution to the top 4 rows and 22.5 µL tracer + competing compound solution to the 4 bottom rows. Plates were briefly mixed on an orbital shaker and incubated for 1.5 h at room temperature. […]
# SSTR2 = target: T3, SSTR2 (Homo sapiens, UniProt P30874); assay: NanoBRET screen HiBiT-SSTR2 in HEK293
# T3 construct: purchased Promega (in-house HiBiT-GPCR construct library, NanoBRET)
# Description: as §1, §2
# FZD6 = target: T4, FZD6 (Homo sapiens, UniProt O60353); assay: NanoBRET screen HiBiT-FZD6 in HEK293
# T4 construct: purchased Promega (in-house HiBiT-GPCR construct library, NanoBRET)
# T4 sequence (O60353 19-706): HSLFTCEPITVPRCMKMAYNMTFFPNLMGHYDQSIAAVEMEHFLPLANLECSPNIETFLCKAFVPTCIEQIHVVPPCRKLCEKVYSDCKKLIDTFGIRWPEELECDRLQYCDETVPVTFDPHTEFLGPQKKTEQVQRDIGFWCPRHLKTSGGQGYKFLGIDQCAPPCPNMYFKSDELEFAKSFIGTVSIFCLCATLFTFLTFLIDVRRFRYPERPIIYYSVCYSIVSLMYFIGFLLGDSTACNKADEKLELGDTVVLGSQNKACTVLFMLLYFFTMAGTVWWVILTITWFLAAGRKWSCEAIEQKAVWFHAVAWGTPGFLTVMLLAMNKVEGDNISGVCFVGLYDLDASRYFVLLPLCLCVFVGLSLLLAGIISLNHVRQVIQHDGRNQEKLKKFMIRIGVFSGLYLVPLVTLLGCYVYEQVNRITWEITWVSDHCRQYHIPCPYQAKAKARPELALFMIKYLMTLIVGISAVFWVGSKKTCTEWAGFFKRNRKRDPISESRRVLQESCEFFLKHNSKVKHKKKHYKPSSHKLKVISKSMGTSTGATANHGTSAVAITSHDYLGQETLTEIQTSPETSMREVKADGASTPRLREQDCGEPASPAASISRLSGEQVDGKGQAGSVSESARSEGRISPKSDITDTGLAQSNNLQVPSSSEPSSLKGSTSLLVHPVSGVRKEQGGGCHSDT
# Description: as §1, §2
# T1 sequence (P28223 whole entry): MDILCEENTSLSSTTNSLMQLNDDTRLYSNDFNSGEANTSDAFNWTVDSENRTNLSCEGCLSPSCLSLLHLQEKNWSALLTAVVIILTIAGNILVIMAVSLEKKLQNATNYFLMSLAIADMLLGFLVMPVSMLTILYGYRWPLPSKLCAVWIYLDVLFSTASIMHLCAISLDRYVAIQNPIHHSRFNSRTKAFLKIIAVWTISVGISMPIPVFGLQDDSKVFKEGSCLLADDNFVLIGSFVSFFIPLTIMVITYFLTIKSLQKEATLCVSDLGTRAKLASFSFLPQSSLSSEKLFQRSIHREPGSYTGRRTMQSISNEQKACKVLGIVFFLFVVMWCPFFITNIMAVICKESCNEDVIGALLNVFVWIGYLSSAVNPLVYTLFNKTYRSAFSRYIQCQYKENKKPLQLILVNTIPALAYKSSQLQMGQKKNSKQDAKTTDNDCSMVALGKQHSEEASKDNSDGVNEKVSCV
# T3 sequence (P30874 whole entry): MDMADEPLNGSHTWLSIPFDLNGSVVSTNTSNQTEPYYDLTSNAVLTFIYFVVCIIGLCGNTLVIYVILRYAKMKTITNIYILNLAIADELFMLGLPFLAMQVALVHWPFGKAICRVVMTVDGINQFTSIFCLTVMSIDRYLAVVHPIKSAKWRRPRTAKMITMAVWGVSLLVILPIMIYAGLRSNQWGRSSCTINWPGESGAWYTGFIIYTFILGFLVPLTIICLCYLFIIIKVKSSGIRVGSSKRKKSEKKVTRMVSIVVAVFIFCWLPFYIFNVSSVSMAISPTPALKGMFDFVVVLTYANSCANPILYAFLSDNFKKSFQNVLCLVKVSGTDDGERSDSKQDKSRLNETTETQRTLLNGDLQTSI
SMILES,NanoBRET Fold Response (HTR2A),"NanoBRET Fold Response (CCR7; CCR7, tracer 0.1μM)","NanoBRET Fold Response (CCR7; CCR7, tracer 1μM)","NanoBRET Fold Response (SSTR2; SSTR2, tracer 0.1μM)","NanoBRET Fold Response (SSTR2; SSTR2, tracer 1μM)","NanoBRET Fold Response (FZD6; FZD6, tracer 0.1μM)","NanoBRET Fold Response (FZD6; FZD6, tracer 1μM)","NanoBRET Fold Response (HTR2A; HTR2A, tracer 0.1μM)","NanoBRET Fold Response (HTR2A; HTR2A, tracer 1μM)",also measured
COc1ccc2c(n1)c(CCNC(C)=O)cn2CCNC(=O)CCc1ccc2n1[B-](F)(F)[N+]1=C(c3ccc[nH]3)C=CC1=C2 [Azamelatonin-1-NB590],,,,,,,,,,NanoBRET Fold Response (HTR2A; 0.1μM tracer): 1.06; NanoBRET Fold Response (HTR2A; 1μM tracer): 1.06; NanoBRET Fold Response (CCR7; 0.1μM tracer): 0.88; NanoBRET Fold Response (CCR7; 1μM tracer): 0.96; NanoBRET Fold Response (SSTR2; 0.1μM tracer): 1.07; NanoBRET Fold Response (SSTR2; 1μM tracer): 0.88; NanoBRET Fold Response (FZD6; 0.1μM tracer): 1.09; NanoBRET Fold Response (FZD6; 1μM tracer): 0.86
COc1ccc2[nH]c(-c3ccc(CNC(=O)CCOCCOCCOCCOCCNC(=O)CCc4ccc5n4[B-](F)(F)[N+]4=C(c6ccc[nH]6)C=CC4=C5)cc3)c(CCNC(C)=O)c2n1 [AzomelatoninICO9-2-NB590],,,,,,,,,,NanoBRET Fold Response (HTR2A; 0.1μM tracer): 0.92; NanoBRET Fold Response (HTR2A; 1μM tracer): 1.02; NanoBRET Fold Response (CCR7; 0.1μM tracer): 1.02; NanoBRET Fold Response (CCR7; 1μM tracer): 0.98; NanoBRET Fold Response (SSTR2; 0.1μM tracer): 1.10; NanoBRET Fold Response (SSTR2; 1μM tracer): 1.00; NanoBRET Fold Response (FZD6; 0.1μM tracer): 1.12; NanoBRET Fold Response (FZD6; 1μM tracer): 0.94
O=C(CCOCCOCCOCCOCCNC(=O)CCc1ccc2n1[B-](F)(F)[N+]1=C(c3ccc[nH]3)C=CC1=C2)NCCCN1CCN(C2=Nc3cc(Cl)ccc3Nc3ccccc32)CC1 [Clozapine-a-2-NB590],,,,,,,,,,"NanoBRET Fold Response (HTR2A; HTR2A, 0.1μM tracer): 2.26; NanoBRET Fold Response (HTR2A; HTR2A, 1μM tracer): 2.01; NanoBRET Fold Response (CCR7; CCR7, 0.1μM tracer): 1.01; NanoBRET Fold Response (CCR7; CCR7, 1μM tracer): 0.99; NanoBRET Fold Response (SSTR2; SSTR2, 0.1μM tracer): 1.03; NanoBRET Fold Response (SSTR2; SSTR2, 1μM tracer): 1.07; NanoBRET Fold Response (FZD6; FZD6, 0.1μM tracer): 0.99; NanoBRET Fold Response (FZD6; FZD6, 1μM tracer): 0.93"
O=C(CCOCCOCCOCCOCCNC(=O)CCc1ccc2n1[B-](F)(F)[N+]1=C(c3ccc[nH]3)C=CC1=C2)NCCCN1CCN(C2=Nc3ccccc3Oc3ccc(Cl)cc32)CC1 [Loxapine-a-2-NB590],1.71 and 1.28,1.00,1.11,1.03,1.31,1.09,1.06,,,
COc1ccccc1N1CCN(CCCCN2C(=O)c3ccc(CNC(=O)CCOCCOCCOCCOCCNC(=O)CCc4ccc5n4[B-](F)(F)[N+]4=C(c6ccc[nH]6)C=CC4=C5)cc3C2=O)CC1 [NAN-190-2-NB590],0.97,0.97,0.99,0.99,1.03,0.95,1.04,,,
COc1ccccc1N1CCN(CCCCN2C(=O)c3ccc(CNC(=O)CCOCCNC(=O)c4ccc(CNC(=O)CCc5ccc6n5[B-](F)(F)[N+]5=C(c7ccc[nH]7)C=CC5=C6)cc4)cc3C2=O)CC1 [NAN-190-3-NB590],1.14 and 1.13,1.01,1.00,1.00,1.10,0.95,1.13,,,
CC(C)N(CC[C@H](c1ccccc1)c1cc(CCNC(=O)CCOCCOCCOCCOCCNC(=O)CCc2ccc3n2[B-](F)(F)[N+]2=C(c4ccc[nH]4)C=CC2=C3)ccc1O)C(C)C [Tolterodine-2-NB590],,1.26,0.88,1.04,1.00,0.83,0.88,1.05,1.11,
CC(C)N(CC[C@H](c1ccccc1)c1cc(CCNC(=O)c2ccc(CNC(=O)CCc3ccc4n3[B-](F)(F)[N+]3=C(c5ccc[nH]5)C=CC3=C4)cc2)ccc1O)C(C)C [Tolterodine-BZ-NB590],,1.00,1.01,0.95,1.00,0.97,1.04,0.93,1.04,
CCCn1c(=O)c2[nH]c(-c3ccc(OCC(=O)NCCNC(=O)CCOCCNC(=O)c4ccc(CNC(=O)CCc5ccc6n5[B-](F)(F)[N+]5=C(c7ccc[nH]7)C=CC5=C6)cc4)cc3)nc2n(CCC)c1=O [XAC-3-NB590],,0.99,1.04,0.97,1.06,0.95,1.05,0.99,1.10,
